# From patent US20100105705A1, “PURINYL DERIVATIVES AND THEIR USE AS POTASSIUM CHANNEL MODULATORS” (NeuroSearch A/S, priority 2007, published 2010)
# Test system: not given
# Assay: not given
row,melting point [°C],SMILES
1,185.4 to 190.5,"Cn1cnc2c(Nc3ccc(Cl)cc3)nc(-c3ccccn3)nc21 [Compound 13.1, (4-Chloro-phenyl)-(9-methyl-2-pyridin-2-yl-9H-purin-6-yl)-amine]"

# Target: T1, hSK3 channels (Homo sapiens, UniProt Q9UGI6)
# T1 construct: expressed in transfected cells; host or cells: HEK293
# Assay: Whole-cell patch-clamp recording of ionic current through SK channels, subtype 3, in HEK293 cells expressing hSK3
# Type: cell-based
# Description: The ionic current through small-conductance Ca^2+-activated K^+ channels (SK channels, subtype 3) is recorded using the whole-cell configuration of the patch-clamp technique in a classic patch-clamp set-up using HEK293 tissue culture cells expressing hSK3 channels as described in e.g. WO 2006/100212.
# The SC100 value determined is defined as the Stimulating Concentration required for increasing the baseline current by 100%. The below SC100 values are an indication of the SK3 activating properties of the compounds of the invention.
row,SC100 (Stimulating Concentration required for increasing the baseline current by 100%) [µM],SMILES
1,0.15,"Cc1c2c(nn1-c1nc(Nc3ccc(F)cc3)c3ncn(C)c3n1)CCC2 [Compound 9.5, (4-Fluoro-phenyl)-[9-methyl-2-(3-methyl-5,6-dihydro-4H-cyclopentapyrazol-2-yl)-9H-purin-6-yl]-amine]"
2,0.6,"Cn1cnc2c(Nc3ccc(Cl)cc3)nc(-n3ccc(N)n3)nc21 [Compound 7.1, [2-(3-Amino-pyrazol-1-yl)-9-methyl-9H-purin-6-yl]-(4-chloro-phenyl)-amine]"
3,0.7,"Cn1cnc2c(NC3CCCCC3)nc(-n3cccn3)nc21 [Compound 6.3, Cyclohexyl-(9-methyl-2-pyrazol-1-yl-9H-purin-6-yl)-amine]"
4,0.18,"Cn1cnc2c(Nc3ccc(Cl)cc3)nc(-n3cccn3)nc21 [Compound 6.2, (4-Chloro-phenyl)-(9-methyl-2-pyrazol-1-yl-9H-purin-6-yl)-amine]"
5,0.02,"Cc1ccn(-c2nc(Nc3ccc(Cl)cc3)c3ncn(C)c3n2)n1 [Compound 9.1, (4-Chloro-phenyl)-[9-methyl-2-(3-methyl-pyrazol-1-yl)-9H-purin-6-yl]-amine]"
6,0.6,"Cc1ccn(-c2nc(NCCc3ccccc3)c3ncn(C)c3n2)n1 [Compound 9.3, [9-Methyl-2-(3-methyl-pyrazol-1-yl)-9H-purin-6-yl]-phenethyl-amine]"
7,0.02,"Cc1ccn(-c2nc(Nc3ccc(F)cc3)c3ncn(C)c3n2)n1 [Compound 6.6, (4-Fluoro-phenyl)-[9-methyl-2-(3-methyl-pyrazol-1-yl)-9H-purin-6-yl]-amine]"
8,0.3,"Cn1cnc2c(Nc3ccc(Cl)cc3)nc(-n3ccc(C(F)(F)F)n3)nc21 [Compound 6.1, (4-Chloro-phenyl)-[9-methyl-2-(3-trifluoromethyl-pyrazol-1-yl)-9H-purin-6-yl]-amine]"
